Laboratory results: publication PMC6068282, “In Silico Discovery of Plant-Origin Natural Product Inhibitors of Tumor Necrosis Factor (TNF) and Receptor Activator of NF-κB Ligand (RANKL)” (Frontiers in Pharmacology, 2018)

Biological target: T1, TNF / human TNF (TNF/TNFR1 ELISA) (Homo sapiens, UniProt P01375)
T1 construct: recombinant human TNF (soluble; biologically active homotrimer); with Tumor necrosis factor receptor superfamily member 1A
Assay: ELISA, TNF binding to TNFR1

T1 sequence (P01375 77-233): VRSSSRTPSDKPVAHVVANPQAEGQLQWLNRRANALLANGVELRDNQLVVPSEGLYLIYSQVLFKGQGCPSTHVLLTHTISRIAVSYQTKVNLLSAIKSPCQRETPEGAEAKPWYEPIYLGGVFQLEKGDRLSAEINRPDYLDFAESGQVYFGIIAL

Row | IC50 [µM] | Compound
1 | 3.3 ± 0.9 | Oc1ccc([C@@H]2c3c(O)cc4c(c3[C@H]3[C@H](c5ccc(O)cc5)c5c(O)cc6c(c5[C@@H]23)[C@@H](c2cc(O)cc(O)c2)[C@H](c2ccc(O)cc2)O6)[C@@H](c2cc(O)cc(O)c2)[C@H](c2ccc(O)cc2)O4)cc1 [A11, (1R,2R,6R,6aR,7R,8R,12R,12aR)-1,7-Bis(3,5-dihydroxyphenyl)-2,6,8,12-tetrakis(4-hydroxyphenyl)-1,2,6,6a,7,8,12,12a-octahydrofuro[2″,3″:6′,7′]indeno[1′,2′:2,3]indeno [5,4-b]furan-5,11-diol]
2 | 4.1 ± 1.7 | C[C@@H]1O[C@@H](Oc2c(-c3ccc(O)cc3)oc3cc(O)cc(O)c3c2=O)[C@H](O[C@@H]2O[C@H](COC(=O)/C=C/c3ccc(O)cc3)[C@@H](O)[C@H](O)[C@H]2O)[C@H](O)[C@H]1O [A25, [(2R,3S,4S,5R,6S)-6-[(2S,3R,4R,5R,6S)-2-[5,7-dihydroxy-2-(4-hydroxyphenyl)-4-oxochromen-3-yl]oxy-4,5-dihydroxy-6-methyloxan-3-yl]oxy-3,4,5-trihydroxyoxan-2-yl]methyl(E)-3-(4-hydroxyphenyl)prop-2-enoate]
